In ChEMBL document CHEMBL4346708, “Synthetic approaches and pharmaceutical applications of chloro-containing molecules for drug discovery: A critical review” (Eur J Med Chem, 2019):
Values belong to the compound of their own block, whether it stands above or below them.

Tests used:
[1] = target: Amyloid-beta precursor protein (Homo sapiens, UniProt P05067); experiment: Inhibition of amyloid beta (1 to 42) (unknown origin) aggregation
Erythrocyte = experiment: Antiinflammatory activity in human erythrocytes assessed as inhibition of hypotonic solution-induced haemolysis after 10 mins by spectrophotometric analysis; format: functional, cell-based
[2] = Inhibition of porcine pancreatic alpha-amlyase after 10 mins; parameters: species or system Sus scrofa
Alpha glucosidase = Alpha glucosidase (Homo sapiens, UniProt O43451+P10253+P14410+Q2M2H8); experiment: Inhibition of alpha-glucosidase (unknown origin) using p-nitrophenyl-a-d-glucopyranoside as substrate preincubated for 5 mins followed by substrate addition measured after 5 mins by spectrophotometric analysis; format: protein assay
[3] = Anti glycation activity assessed as inhibition of BSA glycation after 7 days in presence of glucose by spectrofluorimetry assay; format: functional
[4] = Antioxidant activity assessed as DPPH radical scavenging activity after 30 mins; format: functional

Sequence of Amyloid-beta precursor protein (P05067 whole entry): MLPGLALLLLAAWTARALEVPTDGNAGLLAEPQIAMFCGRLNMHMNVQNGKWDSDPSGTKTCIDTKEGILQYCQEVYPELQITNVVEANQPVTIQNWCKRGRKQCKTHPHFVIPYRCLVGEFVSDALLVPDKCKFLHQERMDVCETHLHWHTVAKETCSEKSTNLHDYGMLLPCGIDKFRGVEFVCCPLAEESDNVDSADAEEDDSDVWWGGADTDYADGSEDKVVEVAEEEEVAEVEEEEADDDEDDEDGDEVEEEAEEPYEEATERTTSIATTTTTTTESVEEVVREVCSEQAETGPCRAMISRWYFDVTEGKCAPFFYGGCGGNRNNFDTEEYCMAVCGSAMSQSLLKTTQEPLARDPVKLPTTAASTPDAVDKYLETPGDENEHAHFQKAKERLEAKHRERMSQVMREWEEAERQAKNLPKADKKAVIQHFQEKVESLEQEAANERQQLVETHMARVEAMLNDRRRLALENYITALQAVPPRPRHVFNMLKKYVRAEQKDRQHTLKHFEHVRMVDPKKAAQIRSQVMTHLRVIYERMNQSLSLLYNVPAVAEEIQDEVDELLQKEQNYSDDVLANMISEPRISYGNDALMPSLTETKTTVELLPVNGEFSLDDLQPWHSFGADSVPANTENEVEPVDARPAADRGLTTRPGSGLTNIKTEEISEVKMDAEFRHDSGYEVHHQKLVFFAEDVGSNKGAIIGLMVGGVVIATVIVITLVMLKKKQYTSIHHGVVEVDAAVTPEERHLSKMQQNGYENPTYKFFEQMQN

SMILES: O=c1c2c(F)cccc2[se]n1-c1cc(Cl)c(O)c2ncccc12
- IC50 [1]: 9.6 µM

SMILES: CCCc1nc(C(C)(C)O)c(C(=O)N/N=C/c2ccc(Cl)cc2Cl)[nH]1
- IC50 (Erythrocyte): 46 µM

SMILES: Oc1ccc(O)c(-c2nc3ncc(Cl)cc3[nH]2)c1
- IC50 [4]: 72.5 µM

The next lines start with the values.

- IC50 [2]: 2.1 µM
SMILES: O=C(NNC(=S)Nc1ccccc1Cl)c1cc2cc(Cl)ccc2[nH]1

- IC50 (Alpha glucosidase): 4.7 µM
SMILES: Clc1ccc(-c2nnc(/N=C/c3ccc(Cl)cc3Cl)s2)cc1

- IC50 [3]: 240 µM
SMILES: Oc1ccc(-c2nc3ncc(Cl)cc3[nH]2)c(O)c1

- IC50 [2]: 2.03 µM
SMILES: O=C(NNC(=S)Nc1ccc(F)cc1)c1cc2cc(Cl)cnc2[nH]1
